Structures can show the parent of a compound that is named as a salt.

Series [1] deals with mouse spleen lymphocytes. Nature of the series: Non-specific cytotoxicity assay (MTT), mouse spleen lymphocytes. It is filed as cell-based. Particulars: mouse whole spleen lymphocytes, 48 hours, listed as Hydroxychloroquine Sulfate (Zhongxi Sunve). How it is done: BALB/c mice were sacrificed by cervical dislocation, and spleens were aseptically excised to prepare whole spleen lymphocytes. The cells were adjusted to the required concentration. The compound concentrations started at 250 μM and was diluted with a 4-fold gradient to obtain 10 concentrations: 250, 62.5, 15.625, 3.906, 0.977, 0.244, 0.061, 0.015, 0.004 and 0.001 μM.
A suspension of mouse spleen lymphocytes was inoculated into a 96-well plate at 8×10^5/well, and the above 10 concentration gradients of the compound were added. A corresponding cell control (i.e. spleen lymphocyte culture system without compound) and a RPMI 1640 culture medium background control (blank culture medium control) were set up. The cells were cultured in a 37° C., 5% CO2 incubator for 48 hours. Four hours before the end of the culture, 20 μl of 5 mg/ml MTT solution was added, and the reaction continued until the end of the culture (i.e. the aforementioned 48 hours). The supernatant was aspirated and discarded, 200 μl DMSO was added to each well to dissolve the crystals. […]. The absorbance value was measured at […] with a microplate reader (Spectra Max 190, Molecular Devices).

Series [2] concerns spleen and lymph node lymphocytes in arthritic mice. Description: Lymphocyte proliferation of spleen and lymph nodes of arthritic mice (3H-TdR incorporation). The series is classed as in vivo, mouse. Particulars: intragastric, cells stimulated ex vivo, FIG. 3. How it is done:
(§1) Normal group, model group, positive medicament (1 mg/kg dexamethasone) group, naphthoquine phosphate (25, 50, 100 mg/kg) groups, hydroxychloroquine sulfate (100 mg/kg) group.
(§2) 10 mg of Type II Collagen (CII) was swollen in 2.5 ml of 0.1 mol/L glacial acetic acid to prepare a 4 mg/ml CII solution. This solution was fully emulsified with an equal volume of CFA, and injected subcutaneously (50 μl) at the base of the tail of mice. After 21 days, 4 mg/ml CII solution was fully emulsified with an equal volume of IFA. This mixture was injected subcutaneously (50 μL) at the base of the tail of mice to boost the immune response.
Lymphocyte proliferation in each group was assessed using the ^3H-TdR incorporation method. Lymph nodes […] of mice in each group were isolated to prepare lymphocyte suspensions. The cells were inoculated into each well of a 96-well plate. ConA (final concentration: 5 μg/ml) and LPS (final concentration: 10 μg/ml) were added respectively, and cultured in a 37° C., 5% CO2 incubator for 48 hours. Eight hours before the end of the culture, 25 μl ^3H-TdR and anti-CD3 (final concentration: 5 μg/ml, pre-incubated overnight) were added to each well. The cells were cultured in a 37° C., 5% CO2 incubator for […]. […] 5 ml scintillation fluid was added, and the values of radioactive counts per minute were read on a Beta counter (2450 Microplate Counter, PerkinElmer).

For series [3], the system named is adjuvant-induced arthritis in rats. Description: Adjuvant-induced arthritis in rats: arthritis scoring and foot swelling. Particulars: FIG. 7. It is filed as in vivo, rat.
Series [4] concerns collagen-specific antibodies. Nature of the series: Anti-CII antibody levels in serum of arthritic mice (ELISA). It is filed as in vivo, mouse. Particulars: intragastric, FIG. 4. The procedure: as §1, §2
50 μl CII solution (final concentration: 50 μg/ml) was added to each well of a 96-well ELISA plate for coating overnight. The plate was washed 4 times with 200 μl washing solution (1L PBS+500 μl Tween 20) per well. 100 μl 1% BSA was added to each well to block for 1 hour. The plate was then washed 4 times with 200 μl washing solution per well. 50 μl diluted serum samples from each group of mice were added to each well and incubated for 2 hours. The plate was washed 4 times with 200 μl washing solution per well. Horseradish Peroxidase (HRP)-conjugated IgG secondary antibody was added and incubated for 1 hour. […] Absorbance values at 450 nm/570 nm were read by a microplate reader (Spectra Max 190, Molecular Devices).
A general note: ELISA stands for enzyme-linked immunosorbent assay.

The test system of series [5] is bovine type II collagen-induced arthritis in mice. Nature of the series: Bovine type II collagen-induced arthritis in mice: arthritis scoring and hindfoot thickness. The series is classed as in vivo, mouse. The procedure: as §1, §2
The severity of arthritis was scored by observing joint lesions of limbs of mice. Detectable arthritis accompanied by erythema in one or more fingers was scored as 1 point, moderate redness and swelling from the ankle joint to the middle of the foot was scored as 2 points, severe redness and swelling from the ankle joint to the fingers was scored as 3 points, and severe swelling with ankylosis was scored as 4 points. During scoring, bilateral hindfoot thickness was measured.

The subject of series [6] is anti-nuclear antibodies. Nature of the series: Anti-nuclear antibodies in serum of MRL/lpr mice (ANA kit). It is filed as in vivo, mouse. Particulars: intragastric 25, 50 mg/kg, FIG. 8. The procedure:
(§3) Normal group, model group, positive medicament (1 mg/kg prednisone) group, naphthoquine phosphate (25, 50 mg/kg) group, hydroxychloroquine sulfate (100 mg/kg) group.
At the end of the experiment, eyeballs were removed to collect blood. ELISA method was used to detect the levels of anti-dsDNA antibodies in serum of experimental mice, and the anti-nuclear antibody kit was used to detect the levels of anti-nuclear antibodies. […] (Note: * P value<0.05, ** P value<0.01, *** P value<0.001, compared with model group.)

Series [7] has as its system anti-dsDNA antibodies. Nature of the series: Anti-double-stranded DNA antibodies in serum of MRL/lpr mice (ELISA). It is filed as in vivo, mouse. Particulars: intragastric 25, 50 mg/kg, FIG. 8. How it is done: as §3
50 μl double-stranded DNA solution (final concentration: 50 μg/ml) was added to each well of a 96-well ELISA plate for coating overnight. The plate was washed 4 times with 200 μl washing solution (1L PBS+500 μl Tween 20) per well. 100 μl 1% BSA was added to each well and blocked for 1 hour. The plate was washed 4 times with 200 μl washing solution per well. 50 μl diluted mouse serum samples of each group were added to each well and incubated for 2 hours. The plate was washed 4 times with 200 μl washing solution per well. Horseradish peroxidase (HRP)-conjugated IgG (H+L) secondary antibodies were added and incubated for 1 hour. The plate was washed 5 times with 200 μl washing solution per well. 50 μl tetramethylbenzidine (TMB) substrate was added, and 30 μl 1M sulfuric acid solution was added to terminate color development based on the condition of color development. Absorbance values at 450 nm/570 nm were read by a microplate reader (Spectra Max 190, Molecular Devices).
At the end of the experiment, eyeballs were removed to collect blood. ELISA method was used to detect the levels of anti-dsDNA antibodies in serum of experimental mice, and the anti-nuclear antibody kit was used to detect the levels of anti-nuclear antibodies. […]

As a reminder, the CC50 is the concentration that lowers cell viability or growth by half. High values mean lower toxicity to the cells, low ones greater toxicity to the cells. `CCN(CCO)CCCC(C)Nc1ccnc2cc(Cl)ccc12` (centres unmarked) [Hydroxychloroquine Sulfate, hydroxychloroquine sulfate]: the CC50 in series [1] was found to be 25.2 µM.
As to `CC(C)(C)NCc1cc(Nc2ccnc3cc(Cl)ccc23)c2c(c1O)CCCC2.O=P(O)(O)O.O=P(O)(O)O` [Naphthoquine Phosphate, Naphthoquine phosphate], the “proliferation of spleen and lymph node lymphocytes in arthritic mice” value in series [2] was “significantly inhibit”. In addition, in series [3] (intragastric 25, 50, 100 mg/kg), the “clinical arthritis scores of the experimental rats” value is on record as “improved” and the “extent of foot swelling in rats” value is on record as “inhibited”. Moreover, the “therapeutic effect in arthritic rats compared with hydroxychloroquine sulfate” value in series [3] (same dose (100 mg/kg)) is “superior to that of hydroxychloroquine sulfate at the same dose”. The “levels of collagen-specific antibodies in serum of arthritic mice” value in series [4] was “reduce”. For the same compound, in series [5] (intragastric, 25, 50, 100 mg/kg, FIG. 1, vs model group), the “arthritis scores of model mice” value is “significantly reduced”. Besides, the “foot swelling in arthritic mice” value in series [5] (intragastric, FIG. 2) is reported as “improved”. Further, the “therapeutic effect on arthritis scores compared with hydroxychloroquine sulfate” value in series [5] (same dose (100 mg/kg), FIG. 1) was “superior to that of hydroxychloroquine sulfate at the same dose”. Further, in series [6], the “levels of anti-nuclear antibodies in serum” value is listed as “significantly reduced”. Further, in series [7], the “levels of anti-dsDNA antibodies in serum” value is “significantly reduced”.
